Data set [1] relates to Y. pseudotuberculosis Ysc T3SS (YopE secretion). It is filed as cell-based, Yersinia pseudotuberculosis.
Data set [2] has as its system Y. enterocolitica Ysa T3SS (YspF secretion). Format: cell-based, Yersinia enterocolitica.
A further data set concerns HeLa cells. The data set can be described thus: Cytological profiling (CP). It is filed as cell-based. To be noted: concentration used in Chlamydia infection. As for the experimental part: Briefly, HeLa cells were cultured and seeded into 384-well plates at 2,500 cells/well. After 48 h, compounds were added using a Janus MDT robot (PerkinElmer). Two stain sets were used—stain set 1, Hoechst, EdUrhodamine, anti-phosphohistone H3, and GM130; stain set 2, Hoechst, fluorescein isothiocyanate (FITC)-alpha tubulin, rhodamine-phalloidin, and calnexin. For stain set 1, cells were incubated with 20 μM EdUrhodamine for 1 h prior to fixing in 4% formaldehyde solution in PBS for 20 min. Cells were then washed with PBS and permeabilized with 0.5% Triton X-100 in PBS for 10 min before blocking with 2% BSA in PBS solution for at least 1 h. Following this, cells were incubated with primary antibodies overnight at 4°C. The following day, excess primary antibody was washed off with PBS and Alexa-488, and Alexa-647 secondary antibodies and Hoechst solution were incubated for 1 h. Plates were washed with PBS and preserved with 0.1% sodium azide in PBS solution prior to imaging. For stain set 2, cells were fixed with a 4% formaldehyde solution in PBS for 20 min. Cells were then washed with PBS and permeabilized with 0.5% Triton X-100 in PBS for 10 min before blocking with 2% BSA in PBS solution for at least 1 h. Following this, cells were incubated with primary antibodies overnight at 4°C. […]

For data set [3], the system named is Y. pseudotuberculosis twin arginine translocation (Tat) system. Format: cell-based, Yersinia pseudotuberculosis. To be noted: culture optical density, 4 and 6 h.
Data set [4] has as its system P. aeruginosa PA103 T3SS (ExoU secretion). It is filed as cell-based, Pseudomonas aeruginosa.
Another data set can be described thus: Kinetic solubility. It is filed as physicochemical. As for the experimental part:
[…] Then, […] of 15 mM stock compound was added to make a solution of 120 μM final concentration with 0.8% DMSO. The solution was shaken at 37°C for ∼2 h. The solution was passed over a 0.7- μM glass fiber filter. Then, the solution was diluted 1:4 in acetonitrile to crash out any proteins. The solution was centrifuged at 500 × g for 10 min. Avoiding the pellet, 10 μl of supernatant was added to a fresh plate with 90 μl of acetonitrile. The final dilution is 40 times lower. Next, 10 μl of 40× dilution of solution was injected on the Orbi-trap. A 1 μM standard was used for the ratiometric comparison, and the assay was done in triplicate.

In data set [5] the test system is Salmonella T3SS genes (hilA, hilD, invF, sipC, sipA, fliC). Nature of the data set: mRNA quantification by qPCR of T3SS genes. Conditions: 9 µM, 2 h and 4 h. Format: cell-based, Salmonella enterica Typhimurium. As for the experimental part: Samples were taken after 3 h of induction. Overnight Salmonella cultures were subcultured into fresh LB with 0.3 M NaCl at 37°C in the presence of 9 μM 4EpDN, 4EpDN 2Sar, or equivalent DMSO. Samples were taken after 2 h and 4 h of induction. Samples were stored in RNAprotect reagent (Qiagen) and processed within a week. Total RNA was isolated using an RNAeasy kit (Qiagen) according to the manufacturer’s instructions, followed by two rounds of Turbo DNase (Thermo Fisher scientific) treatment. A total of 2 μg of RNA was used to make cDNA, and quantitative PCRs (qPCRs) were run with SYBR green PCR master mix (Applied Biosystems). DNA helicase (dnaB) and 16S rRNA genes were used as a reference for P. aeruginosa and Salmonella samples, respectively. Two to three technical replicates were averaged for each sample. Results were analyzed using Bio-Rad CFX software.

Data set [6] deals with P. aeruginosa PA103 T3SS (ExsE secretion). Format: cell-based, Pseudomonas aeruginosa.
Data set [7] relates to C. trachomatis serovar L2 in HeLa cells. The data set can be described thus: Chlamydia infection of HeLa cells (primary and secondary infection). It is filed as cell-based, Chlamydia trachomatis. As for the experimental part:
Primary infections. HeLa cell monolayers were infected with C. trachomatis serovar L2 at a multiplicity of infection (MOI) of 1.0 in the presence of one of the following compounds at 9 μM: DMSO, 4EpDN, or 4EpDN 2Sar. Cells were incubated for 24 h in the presence of the above-listed compounds at 37°C and then fixed with 4% paraformaldehyde (PFA). Cells were stained for IncA (Chlamydia inclusion membrane marker), DNA (with DAPI), and MOMP (Chlamydia major outer membrane protein) simultaneously. This method of staining allows visualization of the inclusion independent of MOMP synthesis or transport. The percentage of cells infected (i.e., stained positively for the listed Chlamydia markers) in the presence of the compounds was quantified using confocal microscopy. Quantifications of inclusion take into account both DAPI staining and indirect immunofluoresence with an antibody to MOMP. Ten randomly selected fields of view were measured per experiment. The data represent three biological replicates.
Secondary infections. HeLa cell monolayers were infected with C. trachomatis serovar L2 at an MOI of 1.0 in the presence of one of the following compounds at 9 μM: DMSO, 4EpDN, or 4EpDN 2Sar. Cells were incubated for 48 h in the presence of the above-listed compounds at 37°C. Infected cells were then lysed, and the lysate was applied to fresh HeLa monolayers to enumerate infectious particles. These secondary infections were fixed in 4% PFA at 24 hpi and were stained against MOMP and DNA. The infectious units per ml (IFU/ml) were calculated by averaging the number of infected cells in each of 10 randomly selected fields of view at ×40 magnification on a confocal microscope and multiplying this by the appropriate dilution and area factors. The data represent four biological replicates.

Data set [8] concerns Salmonella enterica Typhimurium SPI-1 T3SS (SipA, SipC secretion). Format: cell-based.
The test system of the next data set is Y. pseudotuberculosis. It is filed as cell-based, Yersinia pseudotuberculosis. To be noted: 2xYT, 9-120 µM, 12 h.
For data set [9], the system named is Salmonella flagellar T3SS (FliC, FliD secretion). Format: cell-based, Salmonella enterica Typhimurium. Also on record: key to Fla fliC (Table 2): NE: No effect observed.
The next data set deals with P. aeruginosa (PAO1). It is filed as cell-based, Pseudomonas aeruginosa.
The next data set concerns flagella (Fla), fliC. Details: key: NE: No effect observed. Conditions: ref [102]; cited from earlier work.
For data set [10], the system named is Salmonella enterica Typhimurium SPI-1 T3SS. To be noted: culture-based secretion assay; ref [102]; read-out: IC50, SipC secretion; cited from earlier work.

The structures appear in SMILES notation. Values after ≈ are worked out from the molar mass of the structure shown. Values joined by “and” are separate entries in the source; they are usually repeats but may differ in a detail not shown here. Identical values can stand only once. Like-named read-outs stand apart in the source and are kept apart here. Marks after values point to notes of the source that are not given here. Square brackets hold non-standard residues; d marks the D form. Peptide text beside a SMILES is read from it. Nphe = O=C(O)CNCc1ccccc1; NPrGly = CCCNCC(=O)O A value given as a limit tells only on which side of the number the result lay.

One may read the IC50 as the concentration at which inhibition is half-maximal. One may read the kinetic solubility as solubility judged after dilution from a stock solution rather than from solid. By solubility is commonly meant the concentration that dissolves in the medium under given conditions. In the case of `CCCN1CC(=O)N(Cc2ccccc2)CC(=O)N[C@@H](CC(C)C)C(=O)N[C@@H]([C@@H](C)CC)C(=O)N[C@H](CC(C)C)C(=O)N[C@H](Cc2ccccc2)C1=O` [4EpDN, 4-EpD1,2N] (cyclo(I[dL][dF][NPrGly][Nphe]L)), the “lowest known inhibitory concentration (∼), YopE secretion” value in [1] (Table 2, Ysc, culture-based secretion assay) is on record as “∼7.5 YopE^b μM”. In [1] (same concentration as YscF staining (60 μM)), the “T3SS effector secretion inhibited, fold” value is 4 fold. For the same compound, the IC50 in data set [2] is 16.1 µM; in data set [4] (read-out: IC50, inhibition of secretion of T3SS effector ExoU), 3.9 µM; in data set [8] (read-out: IC50, SipAC secretion (SPI-1 T3SS)) it was 1 µM; in [8] (read-out: IC50, SipC secretion) it was ~1 µM and ~0.8 µM. Besides, the “secretion of YspF, in words” value in [2] is “inhibited secretion of YspF in a dose-dependent manner”. The “changes to actin cytoskeleton, Golgi network, endoplasmic reticulum, microtubule network” value in the data set on HeLa cells is on record as “did not show any gross changes”. Moreover, in data set [3], the “growth of SufI-β-lactamase Tat reporter bacteria in penicillin G / Tat inhibition, in words” value was “does not inhibit the Tat secretion system”. The “fold more potent than its parental compound” value in data set [4] was determined as 2 fold. The “inhibition of ExoU secretion” value in data set [4] (9 µM) and in data set [4] (60 µM) was around 75% in each case. The compound further displayed a kinetic solubility in “Kinetic solubility” of 13 µM (≈ 9.53 µg/mL). Further, the solubility was 12 µM (≈ 8.8 µg/mL) in the data set “Kinetic solubility” (DMEM (no antibiotics)) and 10 µM (≈ 7.33 µg/mL) in “Kinetic solubility” (M9). The “expression of T3SS genes (qPCR), in words” value in [5] is recorded as “nor did it impact T3SS gene transcription”. For the same compound, the “inhibition of ExsE secretion” value in [6] (9 µM) is “did not significantly inhibit”; in data set [6] (60 µM), around 40%. Moreover, in data set [7] (9 μM, EBs collected at 48 hpi, fresh monolayers 24 h), the “inhibition of formation of infectious progeny” value is on record as around 98%. The “decrease of primary inclusion formation” value in [7] (9 μM, HeLa cells, 24 hpi) was around 50%. For the same compound, the “lowest known inhibitory concentration (∼), cell-based infection assay, Chlamydia” value in data set [7] (Table 2, Chlamydiales) was “∼9^c μM”. Also, the “bacterial viability in broth culture” value with Y. pseudotuberculosis and with P. aeruginosa (PAO1) was “did not affect bacterial viability” each time. For the same compound, the “Fla fliC (Table 2)” value in data set [9] is “NE^d”. Also, in data set [9], the “concentration inhibiting FliC secretion” value was at least 60 µM.
Take `CCCCCCCC(=O)c1c(O)cc(O)cc1CC(=O)OCC` [Cytosporone B]: the “Fla fliC” value in the data set with flagella (Fla), fliC is listed as “NE^d”. In data set [10], the IC50 was 6.25 µM.

(Values after paper PMC8373237 (Antimicrobial Agents and Chemotherapy, 2021).)
